Data from patent US20230146795A1, “ENHANCEMENT OF ANTI-TUMOR ACTIVITY OF SHP2 INHIBITOR PYRIMIDINONE IN COMBINATION WITH NOVEL CANCER MEDICINES IN CANCERS” (TAIHO PHARMACEUTICAL CO., LTD., priority 2020, published 2023).

How the values were obtained:
Type in all cases: cell-based
[1] = tested on: NCI-H358; assay: Anti-proliferation assay (CellTiter-Glo 2.0), combination index, NCI-H358
Description: (§1) Cell lines were obtained from ATCC or Health Science Research Resources Bank.
(§2) Each cell lines were collected by ordinary method, then suspended in indicated medium containing 10% fetal bovine serum in table 3. The number of cells seeded per well was set to 500 cells/20 μL. […] The concentration of each anti-cancer reagents set to 8 concentrations including 0 nM. After adding the medicine to the cells, the cells were further incubated at 37° C. for 3 days under 5% CO2. Cell survival rates were calculated by adding 20 μL of CellTiter-Glo(registered trademark) 2. 0 (Promega) solution to each well, incubating the cells at room temperature for 10 minutes, and then measuring the chemiluminescence intensity of each well using a plate reader (ARVO).
(§3) A combination index (CI) value at each combined concentration of the medicines was determined.

[2] = tested on: MV-4-11; assay: Anti-proliferation assay (CellTiter-Glo 2.0), combination index, MV-4-11
Description: as §1
384 well culture plate (781086, Greiner Bio-One International) was used for cell survival rate measurement assay. Each cell lines were collected by ordinary method, then suspended in indicated medium containing 10% fetal bovine serum in table 3. The number of cells seeded per well was set to 500 cells/20 μL. After incubation at 37° C. for 24 hours under 5% CO2, Compound 1 and additional compound having an antitumor effect or a vehicle (DMSO) was added to each well by using D300e Digital Dispenser (Tecan). The concentration of Compound 1 was set to 10 concentrations. The concentration of each anti-cancer reagents set to 8 concentrations including 0 nM. After adding the medicine to the cells, the cells were further incubated at 37° C. for 3 days under 5% CO2. Cell survival rates were calculated by adding 20 μL of CellTiter-Glo(registered trademark) 2. 0 (Promega) solution to each well, incubating the cells at room temperature for 10 minutes, and then measuring the chemiluminescence intensity of each well using a plate reader (ARVO).
as §3

[3] = tested on: RT4; assay: Anti-proliferation assay (CellTiter-Glo 2.0), combination index, RT4
Description: as §1, §2, §3

[4] = tested on: MKN45; assay: Anti-proliferation assay (CellTiter-Glo 2.0), combination index, MKN45
Description: as §1, §2, §3

[5] = Compound 1 4.57 + combination drug 41.2 nmol/L (1:9)
[6] = Compound 1 13.7 + combination drug 123 nmol/L (1:9)
[7] = Compound 1 41.2 + combination drug 370 nmol/L (1:9)
[8] = Compound 1 123 + combination drug 1110 nmol/L (1:9)
[9] = Compound 1 370 + combination drug 3330 nmol/L (1:9)
[10] = Compound 1 1110 + combination drug 10000 nmol/L (1:9)
[11] = Compound 1 1.52 + combination drug 123 nmol/L (1:81)
[12] = Compound 1 4.57 + combination drug 370 nmol/L (1:81)
[13] = Compound 1 13.7 + combination drug 1110 nmol/L (1:81)
[14] = Compound 1 41.2 + combination drug 3330 nmol/L (1:81)
[15] = Compound 1 123 + combination drug 10000 nmol/L (1:81)
[16] = Compound 1:combination drug molar ratio 1:81
[17] = Compound 1 13.7 nmol/L + Oxalliplatin 370 nmol/L, molar ratio 1:27
[18] = Compound 1 41.2 nmol/L + Oxalliplatin 1110 nmol/L, molar ratio 1:27
[19] = Compound 1 123 nmol/L + Oxalliplatin 3330 nmol/L, molar ratio 1:27
[20] = Compound 1 370 nmol/L + Oxalliplatin 10000 nmol/L, molar ratio 1:27
[21] = Compound 1 4.57 nmol/L + Oxalliplatin 41.2 nmol/L, molar ratio 1:9
[22] = Compound 1 41.2 + combination drug 13.7 nmol/L (1:0.3)
[23] = Compound 1 370 + combination drug 123 nmol/L (1:0.3)
[24] = Compound 1 1110 + combination drug 370 nmol/L (1:0.3)
[25] = Compound 1 3330 + combination drug 1110 nmol/L (1:0.3)
[26] = Compound 1:combination drug molar ratio 1:9
[27] = Compound 1 13.7 + combination drug 13.7 nmol/L (1:1)
[28] = Compound 1 41.2 + combination drug 41.2 nmol/L (1:1)
[29] = Compound 1 123 + combination drug 123 nmol/L (1:1)
[30] = Compound 1 370 + combination drug 370 nmol/L (1:1)
[31] = Compound 1 1110 + combination drug 1110 nmol/L (1:1)
[32] = Compound 1 3330 + combination drug 3330 nmol/L (1:1)
[33] = Compound 1 10000 + combination drug 10000 nmol/L (1:1)
[34] = Compound 1 123 + combination drug 370 nmol/L (1:3)
[35] = Compound 1 370 + combination drug 1110 nmol/L (1:3)

Structure (SMILES): C#Cc1cccc(Nc2ncnc3cc(OCCOC)c(OCCOC)cc23)c1 [Erlotinib]
- CI [1, 5]: 0.617
- Fa [1, 5]: 0.1600
- CI [1, 6]: 0.145
- Fa [1, 6]: 0.3804
- CI [1, 7]: 0.102
- Fa [1, 7]: 0.5542
- CI [1, 8]: 0.206
- Fa [1, 8]: 0.6026
- CI [1, 9]: 0.256
- Fa [1, 9]: 0.7034
- CI [1, 10]: 0.225
- Fa [1, 10]: 0.8178
- CI [2, 11]: 0.808
- Fa [2, 11]: 0.0915
- CI [2, 12]: 0.880
- Fa [2, 12]: 0.2460
- CI [2, 13]: 0.610
- Fa [2, 13]: 0.6556
- CI [2, 14]: 0.632
- Fa [2, 14]: 0.8799
- CI [2, 15]: 0.962
- Fa [2, 15]: 0.9472
- Description (combinatory effect by CI) [2, 16]: Synergy (0.3-0.7)
- CI [3, 12]: 0.421
- Fa [3, 12]: 0.2843
- CI [3, 13]: 0.464
- Fa [3, 13]: 0.4079
- CI [3, 14]: 0.441
- Fa [3, 14]: 0.5677
- CI [3, 15]: 0.308
- Fa [3, 15]: 0.7514
- Description (combinatory effect by CI) [3, 16]: Synergy (0.3-0.7)

Structure (SMILES): O=C1[O][Pt]2([NH][C@@H]3CCCC[C@H]3[NH]2)[O]C1=O [Oxalliplatin]
- CI [1, 17]: 0.699
- Fa [1, 17]: 0.1376
- CI [1, 18]: 0.424
- Fa [1, 18]: 0.3478
- CI [1, 19]: 0.623
- Fa [1, 19]: 0.4795
- Description ([1]; combination effect, Compound 1 + Oxalliplatin, molar ratio 1:27): Synergy (0.3-0.7)
- CI [4, 17]: 0.571
- Fa [4, 17]: 0.4748
- CI [4, 18]: 0.322
- Fa [4, 18]: 0.6458
- CI [4, 19]: 0.273
- Fa [4, 19]: 0.7808
- CI [4, 20]: 0.216
- Fa [4, 20]: 0.9038
- CI [3, 21]: 0.932
- Fa [3, 21]: 0.2140

Structure (SMILES): CNC(=O)c1cc(Oc2ccc(NC(=O)Nc3ccc(Cl)c(C(F)(F)F)c3)cc2)ccn1 [Sorafenib]
- CI [2, 22]: 0.116
- Fa [2, 22]: 0.9439
- Fa ([2]; Compound 1 123 + combination drug 41.2 nmol/L (1:0.3)): 0.9578
- CI [2, 23]: 0.301
- Fa [2, 23]: 0.9643
- CI [2, 24]: 0.759
- Fa [2, 24]: 0.9665
- CI [2, 25]: 0.865
- Fa [2, 25]: 0.9766

Structure (SMILES): CCN(CC)CCNC(=O)c1c(C)[nH]c(/C=C2\C(=O)Nc3ccc(F)cc32)c1C [Sunitinib]
- CI [1, 7]: 0.502
- Fa [1, 7]: 0.4562
- CI [1, 8]: 0.747
- Fa [1, 8]: 0.7002
- CI [1, 9]: 0.612
- Fa [1, 9]: 0.9541
- Description (combinatory effect by CI) [1, 26]: Synergy (0.3-0.7)
- CI [2, 27]: 0.262
- Fa [2, 27]: 0.9463
- CI [2, 28]: 0.327
- Fa [2, 28]: 0.9651
- CI [2, 29]: 0.902
- Fa [2, 29]: 0.9666
- CI [4, 15]: 0.818
- Fa [4, 15]: 0.8052
- CI [3, 12]: 0.687
- Fa [3, 12]: 0.1808
- CI [3, 13]: 0.392
- Fa [3, 13]: 0.4883
- CI [3, 14]: 0.624
- Fa [3, 14]: 0.6270
- Description (combinatory effect by CI) [3, 16]: Synergy (0.3-0.7)

Structure (SMILES): CC(C)Nc1cc(-c2c[nH]c(C(=O)N[C@H](CO)c3cccc(Cl)c3)c2)c(Cl)cn1 [Ulixertinib]
- CI [1, 29]: 0.709
- Fa [1, 29]: 0.2823
- CI [1, 30]: 0.379
- Fa [1, 30]: 0.5072
- CI [1, 31]: 0.237
- Fa [1, 31]: 0.7490
- CI [1, 32]: 0.260
- Fa [1, 32]: 0.8778
- CI [1, 33]: 0.284
- Fa [1, 33]: 0.9536
- CI [4, 34]: 0.483
- Fa [4, 34]: 0.5887
- CI [4, 35]: 0.644
- Fa [4, 35]: 0.7816
- Description (combinatory effect by CI) ([4]; Compound 1:combination drug molar ratio 1:3): Synergy (0.3-0.7)
- CI [3, 6]: 0.759
- Fa [3, 6]: 0.1321
- CI [3, 7]: 0.310
- Fa [3, 7]: 0.3352
- CI [3, 8]: 0.330
- Fa [3, 8]: 0.4921
- CI [3, 9]: 0.622
- Fa [3, 9]: 0.5670
- Description (combinatory effect by CI) [3, 26]: Synergy (0.3-0.7)
